Data as given in publication PMC10913484, “Hydroxyhexylitaconic acids as potent IMP-type metallo-β-lactamase inhibitors for controlling carbapenem resistance in Enterobacterales” (Microbiology Spectrum, 2024).
≈ marks a conversion by molar mass, not a printed value. Like-named read-outs stand apart in the source and are kept apart here.

Key:
Type in all cases: cell-based
[1] = tested on: E. coli DH5α pBC-IMP-1; assay: Susceptibility test (microdilution), transformant; conditions: Escherichia coli, read-out: MPM MIC, +agent 100 μg/mL
Description: (§1) Susceptibility testing, based on the microdilution method, was performed according to the guidelines of the Clinical and Laboratory Standards Institute ([36]).

[2] = tested on: E. coli DH5α pBC-NDM-1; assay: Susceptibility test (microdilution), transformant; conditions: for MPM MIC: E. coli DH5α pBC-NDM-1
Description: as §1

[3] = tested on: E. coli DH5α pCL-SMB-1; assay: Susceptibility test (microdilution), transformant; conditions: E. coli DH5α pCL-SMB-1
Description: as §1

[4] = tested on: E. cloacae NUBL-5 (IMP-1); assay: Susceptibility test, clinical isolate; conditions: Enterobacter cloacae
Description: as §1

[5] = tested on: E. coli 426 (IMP-1); assay: Susceptibility test, clinical isolate; conditions: Escherichia coli
Description: as §1

[6] = tested on: E. coli 465 (IMP-1); assay: Susceptibility test, clinical isolate; conditions: Escherichia coli
Description: as §1

[7] = tested on: E. coli NUBL-22 (IMP-6); assay: Susceptibility test, clinical isolate; conditions: Escherichia coli
Description: as §1

[8] = tested on: E. coli NUBL-24 (IMP-1); assay: Susceptibility test, clinical isolate; conditions: Escherichia coli
Description: as §1

[9] = tested on: K. oxytoca NUBL-827 (IMP-1); assay: Susceptibility test, clinical isolate; conditions: Klebsiella oxytoca
Description: as §1

[10] = tested on: K. pneumoniae AR0034 (IMP-4); assay: Susceptibility test, clinical isolate; conditions: Klebsiella pneumoniae, K. pneumoniae AR0034 (IMP-4)
Description: as §1

[11] = tested on: K. pneumoniae AR0076 (VIM-1); assay: Susceptibility test, clinical isolate; conditions: Klebsiella pneumoniae
Description: as §1

[12] = tested on: K. pneumoniae MS5674 (NDM-1/VIM-1); assay: Susceptibility test, clinical isolate; conditions: Klebsiella pneumoniae
Description: as §1

[13] = tested on: K. pneumoniae NUBL-23 (IMP-6); assay: Susceptibility test, clinical isolate; conditions: Klebsiella pneumoniae
Description: as §1

[14] = tested on: K. pneumoniae NUBL-8 (IMP-1); assay: Susceptibility test, clinical isolate; conditions: Klebsiella pneumoniae
Description: as §1

[15] = tested on: P. penneri E11-M475 (IMP-1); assay: Susceptibility test, clinical isolate; conditions: Proteus penneri
Description: as §1

[16] = tested on: IMP-1-producing E. coli NUBL-24; assay: Time-killing assay; conditions: 12-h incubation
Description: The initial density of IMP-1-producing E. coli NUBL-24 (MPM MIC, 8 µg/mL) was adjusted to approximately 5 × 10^6 colony-forming units (cfu)/mL. Either MPM (1 µg/mL) or 9-HHIA/10-HHIA (50 µg/mL) alone or a combination of the two was added to the bacterial solution, and then incubation was performed at 37°C. LB broth containing bacteria alone was used as a control. At 0, 2, 4, 8, and 12 h after adding the agents, an aliquot of the bacterial culture was removed, diluted, and spotted on LB agar plates to count the viable bacterial cells. The detection limit was set at 333 cfu/mL.

[17] = +HHIA 6.25 µg/mL, read-out: IPM MIC
[18] = +HHIA 6.25 μg/mL, read-out: MPM MIC
[19] = +HHIA 25 µg/mL, read-out: IPM MIC
[20] = +HHIA 25 μg/mL, read-out: MPM MIC
[21] = +HHIA 100 µg/mL, read-out: IPM MIC
[22] = +HHIA 100 μg/mL, read-out: MPM MIC

SMILES: C=C(C(=O)O)C(CCCCC(C)O)C(=O)O (centres unmarked) [9-HHIA, 9-hydroxyhexylitaconic acid]
- MIC [1]: 0.125 µg/mL (≈ 0.543 µM)
- MPM MIC ([2]; +agent 25 μg/mL): 64 µg/mL
- MPM MIC ([2]; +agent 100 μg/mL): 64 µg/mL
- MIC ([2]; Escherichia coli, read-out: MPM MIC): 64 µg/mL (≈ 278 µM)
- MPM MIC ([3]; +agent 25 μg/mL): 32 µg/mL
- MPM MIC ([3]; +agent 100 μg/mL): 32 µg/mL
- MIC [4, 17]: 8 µg/mL (≈ 34.7 µM)
- MIC [4, 18]: 16 µg/mL (≈ 69.5 µM)
- MIC [4, 19]: 4 µg/mL (≈ 17.4 µM)
- MIC [4, 20]: 16 µg/mL (≈ 69.5 µM)
- MIC [4, 21]: 2 µg/mL (≈ 8.69 µM)
- MIC [4, 22]: 8 µg/mL (≈ 34.7 µM)
- MIC [5, 17]: 8 µg/mL (≈ 34.7 µM)
- MIC [5, 18]: 8 µg/mL (≈ 34.7 µM)
- MIC [5, 19]: 4 µg/mL (≈ 17.4 µM)
- MIC [5, 20]: 4 µg/mL (≈ 17.4 µM)
- MIC [5, 21]: 2 µg/mL (≈ 8.69 µM)
- MIC [5, 22]: 0.25 µg/mL (≈ 1.09 µM)
- MIC [6, 17]: 16 µg/mL (≈ 69.5 µM)
- MIC [6, 18]: 32 µg/mL (≈ 139 µM)
- MIC [6, 19]: 8 µg/mL (≈ 34.7 µM)
- MIC [6, 20]: 8 µg/mL (≈ 34.7 µM)
- MIC [6, 21]: 2 µg/mL (≈ 8.69 µM)
- MIC [6, 22]: 0.5 µg/mL (≈ 2.17 µM)
- MIC [7, 17]: 2 µg/mL (≈ 8.69 µM)
- MIC [7, 18]: 16 µg/mL (≈ 69.5 µM)
- MIC [7, 19]: 1 µg/mL (≈ 4.34 µM)
- MIC [7, 20]: 16 µg/mL (≈ 69.5 µM)
- MIC [7, 21]: 0.5 µg/mL (≈ 2.17 µM)
- MIC [7, 22]: 4 µg/mL (≈ 17.4 µM)
- MIC ([8]; +HHIA 6.25 µg/mL, E. coli NUBL-24 (IMP-1), read-out: IPM MIC): 4 µg/mL (≈ 17.4 µM)
- MIC ([8]; +HHIA 6.25 μg/mL, E. coli NUBL-24 (IMP-1), read-out: MPM MIC): 4 µg/mL (≈ 17.4 µM)
- MIC ([8]; +HHIA 25 µg/mL, E. coli NUBL-24 (IMP-1), read-out: IPM MIC): 2 µg/mL (≈ 8.69 µM)
- MIC ([8]; +HHIA 25 μg/mL, E. coli NUBL-24 (IMP-1), read-out: MPM MIC): 0.5 µg/mL (≈ 2.17 µM)
- MIC ([8]; +HHIA 100 µg/mL, E. coli NUBL-24 (IMP-1), read-out: IPM MIC): 1 µg/mL (≈ 4.34 µM)
- MIC ([8]; read-out: MPM MIC): 0.125 µg/mL (≈ 0.543 µM)
- MIC [9, 17]: 8 µg/mL (≈ 34.7 µM)
- MIC [9, 18]: 32 µg/mL (≈ 139 µM)
- MIC [9, 19]: 4 µg/mL (≈ 17.4 µM)
- MIC [9, 20]: 16 µg/mL (≈ 69.5 µM)
- MIC [9, 21]: 2 µg/mL (≈ 8.69 µM)
- MIC [9, 22]: 4 µg/mL (≈ 17.4 µM)
- MIC [10, 17]: 4 µg/mL (≈ 17.4 µM)
- MIC [10, 18]: 8 µg/mL (≈ 34.7 µM)
- MIC [10, 19]: 2 µg/mL (≈ 8.69 µM)
- MIC [10, 20]: 2 µg/mL (≈ 8.69 µM)
- MIC [10, 21]: 0.5 µg/mL (≈ 2.17 µM)
- MIC [10, 22]: 0.25 µg/mL (≈ 1.09 µM)
- MIC [11, 17]: 32 µg/mL (≈ 139 µM)
- MIC [11, 18]: 32 µg/mL (≈ 139 µM)
- MIC [11, 19]: 32 µg/mL (≈ 139 µM)
- MIC [11, 20]: 32 µg/mL (≈ 139 µM)
- MIC [11, 21]: 32 µg/mL (≈ 139 µM)
- MIC [11, 22]: 32 µg/mL (≈ 139 µM)
- MIC [12, 17]: 64 µg/mL (≈ 278 µM)
- MIC [12, 18]: > 64 µg/mL
- MIC [12, 19]: 32 µg/mL (≈ 139 µM)
- MIC [12, 20]: > 64 µg/mL
- MIC [12, 21]: 32 µg/mL (≈ 139 µM)
- MIC [12, 22]: 64 µg/mL (≈ 278 µM)
- MIC [13, 17]: 0.5 µg/mL (≈ 2.17 µM)
- MIC [13, 18]: 32 µg/mL (≈ 139 µM)
- MIC [13, 19]: 0.5 µg/mL (≈ 2.17 µM)
- MIC [13, 20]: 16 µg/mL (≈ 69.5 µM)
- MIC [13, 21]: 0.5 µg/mL (≈ 2.17 µM)
- MIC [13, 22]: 0.5 µg/mL (≈ 2.17 µM)
- MIC [14, 17]: 2 µg/mL (≈ 8.69 µM)
- MIC [14, 18]: 16 µg/mL (≈ 69.5 µM)
- MIC [14, 19]: 4 µg/mL (≈ 17.4 µM)
- MIC [14, 20]: 4 µg/mL (≈ 17.4 µM)
- MIC [14, 21]: 1 µg/mL (≈ 4.34 µM)
- MIC [14, 22]: 0.5 µg/mL (≈ 2.17 µM)
- MIC [15, 17]: > 64 µg/mL
- MIC [15, 18]: > 64 µg/mL
- MIC [15, 19]: > 64 µg/mL
- MIC [15, 20]: > 64 µg/mL
- MIC [15, 21]: > 64 µg/mL
- MIC [15, 22]: 32 µg/mL (≈ 139 µM)
- Time-kill: effect on growth, HHIA alone ([16]; 50 µg/mL alone): did not affect the growth
- Time-kill: MPM-HHIA combination ([16]; MPM 1 µg/mL + HHIA 50 µg/mL): did not permit the re-growth
